Values quoted from earlier work in publication PMC11704089, “A Novel Cell-Penetrating Peptide–Vascular Endothelial Growth Factor Small Interfering Ribonucleic Acid Complex That Mediates the Inhibition of Angiogenesis by Human Umbilical Vein Endothelial Cells and in an Ex Vivo Mouse Aorta Ring Model” (Biomaterials Research, 2025).

System: various cell lines

RNQRKTVRCFRCRQAGHWISDCRLKSK [Ara27]
Cytotoxicity: without evidence of cytotoxicity | Intracellular uptake compared to Tat-protein transduction domain and membrane translocating sequence: significant improvement in intracellular uptake | Cellular internalization (low concentrations and short treatment conditions, various cell lines): efficiently internalized
